Reference: patent EP1531159B1, “Peptide useful for diagnosis and therapy of tumors” (Deutsches Krebsforschungszentrum Stiftung des öffentlichen …, priority 2003, dated 2005)

Key:
[1] = tested on: DU-145 prostate tumor cells; test: Competition assay of 125I-DU-Sigi1 with unlabeled competitor on DU-145 cells; assay type: binding, human; settings: for inhibition of binding of ^125I-DU-Sigi1: 10 min at 37°C
Protocol: The peptide DU-Sigi1 (FRPNRAQDYNTN) was prepared by chemical synthesis and labeled with ^125I. 200,000 DU-145 cells (human prostate tumor cell line) were seeded into 6-well plates and cultivated for 24 hours. Then, the medium was replaced by fresh medium (without FCS). Different competitor concentrations (unlabeled DU-Sigi1) were added to the medium 30 min before the ^125I-labeled peptide was added to the wells (1-2 mio cpm/well) and incubated for 10 min at 37°C.[…], After the incubation time the cells were collected and washed for three times with 1 ml PBS per washing. Then, the cells were lysed with 0.3 M NaOH. Radioactivity of the lysed cells was determined with a gamma counter and radioactivity as percent applied dose per 1 million cells was calculated. […] The ID50 is approx. 50 µM.

[2] = tested on: human tumor cell lines (DU-145, PC-3, IMR5-75, MDA-MB-435, SW-1736, NPA-87); test: Binding of 125I-DU-Sigi1 to human tumor cell lines
Protocol: (§1) The peptide DU-Sigi1 (FRPNRAQDYNTN) was prepared by chemical synthesis and labelled with ^125I. For in vitro studies, 200,000 cells (DU-145, human prostate tumor cell line; PC-3, human prostate cell line; HUVEC, human primary endothelial cells, IMR5-75, human neuroblastoma cell line, MDA-MB-435, human breast cancer cell line, SW-1736, human thyroid cancer cell line, NPA-87, human thyroid cancer cell line) were seeded into 6-well plates and cultivated for 24 hours. Then, the medium was replaced by fresh medium (without FCS) and for the plates with competitor, unlabelled peptide was added (10^-4 M) and preincubated for 30 min. Then, ^125I-labelled peptide was added to the cell culture (1-2 mio cpm/well) and incubated for 10 min. The cells were collected and washed for three times with 1 ml PBS per washing. Then, the cells were lysed with 0.3 M NaOH. Radioactivity of the lysed cells was determined with a gamma counter and radioactivity as percent applied dose per 1 million cells was calculated.

[3] = tested on: HUVEC, human primary endothelial cells; test: Binding of 125I-DU-Sigi1 to primary endothelial cells; settings: ^125I-labelled peptide, 1-2 mio cpm/well, 10 min incubation
Protocol: as §1

[4] = tested on: PC-3 cells (prostate tumor cell line); test: Competition assay of 125I-DU-Sigi1 with unlabeled DU-Sigi1 on PC-3 cells; assay type: binding, human; settings: data not shown
[5] = tested on: PC-3 cells (prostate tumor cell line); test: Binding kinetics of 125I-DU-Sigi1 on PC-3 cells; parameters: species or system human; settings: data not shown
[6] = tested on: DU-145 prostate tumor cells; test: Binding kinetics of 125I-DU-Sigi1 on DU-145 cells; parameters: species or system human
Protocol: The peptide DU-Sigi1 (FRPNRAQDYNTN) was prepared by chemical synthesis and labelled with ^125I. 200,000 DU-145 cells (human prostate tumor cell line) were seeded into 6-well plates and cultivated for 24 hours. Then, the medium was replaced by fresh medium (without FCS). ^125I-labelled peptide was added to the cell culture (1-2 mio cpm/well) and incubated for times from 1 min to 4 h. After the incubation time the cells were collected and washed for three times with 1 ml PBS per washing. Then, the cells were lysed with 0.3 M NaOH. Radioactivity of the lysed cells was determined with a gamma counter and radioactivity as percent applied dose per 1 million cells was calculated. It could be shown that the binding of DU-Sigi1 is rapid and the highest binding rate occurs after 5 min. Then the amount of bound peptide decreases and reaches a basal level of about 1.5 % applied dose/1 mio cells.

[7] = tested on: human prostate tumor (DU-145); test: Organ distribution of intravenously injected 131I-labeled DU-Sigi1 in tumor-bearing mice; assay type: in vivo, male nu/nu mice; settings: i.v., 28 mio cpm/mouse, 15 min and 45 min postinjection
Protocol: The peptide DU-Sigi1 (FRPNRAQDYNTN) was prepared by chemical synthesis and labeled with ^131I. ^131I labeled peptide DU-Sigi1 (FRPNRAQDYNTN) (28 mio cpm/mouse) was intravenously injected into male nu/nu mice, which subcutaneously carried a human prostate tumor (DU-145). 15 min. and 45 min, respectively, postinjection the mice were sacrificed. The organs were removed, weighed and the radioactivity was determined with a gamma counter. […] The high blood volumn might be due to the degradation of the peptide by serum peptidases and proteases.

Substance	ID50 ([1]; unlabeled DU-Sigi1 as competitor of ^125I-DU-Sigi1)	inhibition of binding of ^125I-DU-Sigi1 ([1]; unlabeled DU-Sigi1 concentration 10^-4, added 30 min before)	inhibition of binding of ^125I-DU-Sigi1 ([1]; unlabeled DU-Sigi1 concentration 10^-5, added 30 min before)	binding of labelled peptide to tumor cells ([2]; ^125I-labelled peptide, 1-2 mio cpm/well, 10 min incubation)	competitive inhibition of binding ([2]; unlabelled peptide 10^-4 M, preincubated for 30 min)	binding of labelled peptide to primary endothelial cells [3]	competition compared with DU-145 cells [4]	binding kinetics compared with DU-145 cells [5]	basal level of bound peptide ([6]; after the binding maximum, incubation up to 4 h)	time of highest binding rate ([6]; incubation times from 1 min to 4 h)	accumulation in tumor versus other organs [7]	competition with ^125I-DU-Sigi1 binding ([1]; unlabeled competitor, same concentration, data not shown)
FRPNRAQDYNTN [DU-Sigi1]	approx. 50 µM	more than 95%	more than 95%	specifically binds to the various tumor cells	up to 95%	not the primary endothelial cells	The same results were obtained	The same results were obtained	about 1.5 % applied dose/1 mio cells	5 min	accumulates in the tumor to a higher extent than in the other organs, with the exeption of the kidney	
octreotide [reference compound]												No competition
